Reference: the supplement of paper PMC4862054

Key:
Conditions in all cases: incubation time: 72 h
[1] = system: BT-474; test: normalised response (% of control), CellTox Green; higher = less cell death (100 = DMSO, 0 = benzethonium chloride kill control)
How it was run: (§1)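 Normalised signals at single concentrations make up the values. They come from breast cancer cell lines seeded (20 µl suspension) into 384-well plates with compound at 5 concentrations in 10-fold steps over a compound-specific 10,000-fold range, incubated 72 h, and read for CellTox Green fluorescence then CellTiter-Glo luminescence. Each plate was normalised to 0.1 % DMSO (100) and a positive kill control (0).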

[2] = system: BT-549; test: as above
How it was run: as §1

[3] = system: CAL-120; test: as above
How it was run: as §1

[4] = system: CAL-148; test: as above
How it was run: as §1

[5] = system: CAL-51; test: as above
How it was run: as §1

[6] = system: CAL-85-1; test: as above
How it was run: as §1

[7] = system: DU-4475; test: as above
How it was run: as §1

[8] = system: HCC1143; test: as above
How it was run: as §1

[9] = system: HCC1599; test: as above
How it was run: as §1

[10] = system: HCC1937; test: as above
How it was run: as §1

[11] = system: HDQ-P1; test: as above
How it was run: as §1

[12] = system: Hs578T; test: as above
How it was run: as §1

[13] = system: MCF-10A; test: as above
How it was run: as §1

[14] = system: MDA-MB-231; test: as above
How it was run: as §1

[15] = system: MDA-MB-436; test: as above
How it was run: as §1

[16] = system: MDA-MB-453; test: as above
How it was run: as §1

[17] = system: MDA-MB-468; test: as above
How it was run: as §1

[18] = system: BT-474; test: normalised response (% of control), CellTiter-Glo; higher = more viable cells (100 = DMSO, 0 = benzethonium chloride kill control)
Description: (§2)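 DSRT, 72 h incubation, CellTox Green / CellTiter-Glo readout. Signal is normalised to DMSO and benzethonium chloride controls. Value is the normalised response at the highest dose.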

[19] = system: BT-549; test: as above
Description: as §2

[20] = system: CAL-120; test: as above
Description: as §2

[21] = system: CAL-148; test: as above
Description: as §2

[22] = system: CAL-51; test: as above
Description: as §2

[23] = system: CAL-85-1; test: as above
Description: as §2

[24] = system: DU-4475; test: as above
Description: as §2

[25] = system: HCC1143; test: as above
Description: as §2

[26] = system: HCC1599; test: as above
Description: as §2

[27] = system: HCC1937; test: as above
Description: as §2

[28] = system: HDQ-P1; test: as above
Description: as §2

[29] = system: Hs578T; test: as above
Description: as §2

[30] = system: MCF-10A; test: as above
Description: as §2

[31] = system: MDA-MB-231; test: as above
Description: as §2

[32] = system: MDA-MB-436; test: as above
Description: as §2

[33] = system: MDA-MB-453; test: as above
Description: as §2

[34] = system: MDA-MB-468; test: as above
Description: as §2

[35] = system: MFM-223; test: as above
Description: as §2

[36] = system: SK-BR-3; test: as above
Description: as §2

[37] = system: MFM-223; test: normalised response (% of control), CellTox Green; higher = less cell death (100 = DMSO, 0 = benzethonium chloride kill control)
How it was run: as §1

Row | Structure (SMILES) | normalised response [1] [%] | normalised response [2] [%] | normalised response [3] [%] | normalised response [4] [%] | normalised response [5] [%] | normalised response [6] [%] | normalised response [7] [%] | normalised response [8] [%] | normalised response [9] [%] | normalised response [10] [%] | normalised response [11] [%] | normalised response [12] [%] | normalised response [13] [%] | normalised response [14] [%] | normalised response [15] [%] | normalised response [16] [%] | normalised response [17] [%] | normalised response [18] [%] | normalised response [19] [%] | normalised response [20] [%] | normalised response [21] [%] | normalised response [22] [%] | normalised response [23] [%] | normalised response [24] [%] | normalised response [25] [%] | normalised response [26] [%] | normalised response [27] [%] | normalised response [28] [%] | normalised response [29] [%] | normalised response [30] [%] | normalised response [31] [%] | normalised response [32] [%] | normalised response [33] [%] | normalised response [34] [%] | normalised response [35] [%] | normalised response [36] [%] | normalised response [37] [%]
1 | Nc1nc(F)nc2c1ncn2[C@@H]1O[C@H](CO)[C@@H](O)[C@@H]1O [Fludarabine] (10000 nM) | 97.5 | 93.6 | 96 | 93 | 101 | 68.5 | 97.6 | 116 | 101 | 91.6 | 105 | 93.3 | 101 | 103 | 84.9 | 98.5 | 119 | 82.9 | 79.1 | 86.1 | 87.6 | 125 | 83.9 | 106 | 69.9 | 78.9 | 86.3 | 96.3 | 98.3 | 114 | 95.2 | 53.2 | 112 | 105 | 108 | 99 | –
2 | CCN(CC)CCCC(C)Nc1c2ccc(Cl)cc2nc2ccc(OC)cc12 (centres undefined) [Mepacrine] (50000 nM) | 104 | 97.8 | 95.8 | 88 | 99.1 | 101 | 96.4 | 104 | 93.3 | 112 | 99.8 | 58.1 | 103 | – | 91.2 | 61.2 | 89.7 | 100 | 106 | 106 | 91 | 87.4 | 103 | 92.2 | 99.2 | 113 | 100 | 101 | 97.7 | 100 | 94.8 | 97 | 98.8 | 102 | 93.5 | 89.3 | 84.8
3 | Nc1nc2[nH]cc(CCc3ccc(C(=O)N[C@@H](CCC(=O)O)C(=O)O)cc3)c2c(=O)[nH]1 [Pemetrexed] (10000 nM) | 77.3 | 98.9 | 99.8 | 102 | 87 | 81.1 | 96.7 | 119 | 91.5 | 99 | 111 | 65.3 | 72 | 70.5 | 80.4 | 93 | – | 39 | 97.2 | 81.9 | 88.5 | 68.3 | 54.2 | 93.7 | 91 | 75.9 | 65.9 | 82.7 | 18.5 | 91.7 | 48 | 78.1 | 97.5 | 93.3 | 89.7 | 65.9 | 98.8
4 | CNC(=O)c1cc(Oc2ccc(NC(=O)Nc3cc(C(C)(C)C)nn3-c3ccc4ncccc4c3)c(F)c2)ccn1 [Rebastinib] (1000 nM) | 89.2 | 77.5 | 85.9 | 101 | 99.7 | – | 99.7 | 115 | 100 | 107 | – | 106 | 101 | 102 | 85.7 | 104 | 64 | 81.6 | 71.3 | 69.2 | 118 | 74.1 | 87.5 | 96.7 | 102 | 102 | 99.8 | 95.7 | 116 | 102 | 77.8 | 112 | 111 | 102 | 62.2 | 92.1 | 101
5 | CCCS(=O)(=O)Nc1ccc(F)c(C(=O)c2c[nH]c3ncc(-c4ccc(Cl)cc4)cc23)c1F [Vemurafenib] (10000 nM) | 95.4 | 89.5 | 97.3 | 75.7 | 65.3 | 109 | 77.1 | 100 | 95.8 | 78.4 | 98.9 | 71.5 | – | 87 | 92.7 | 101 | 148 | 82.6 | 71.8 | 91.1 | 94.7 | 78.4 | 85.1 | 2.81 | 86.1 | 86.4 | 84 | 70.7 | 70.7 | 95.8 | 86.3 | 66.8 | 89.3 | 57.2 | 80.1 | 71 | 97.7
